Laboratory results taken from ChEMBL document CHEMBL1153513, “Sildenafil is a strong activator of mammalian carbonic anhydrase isoforms I-XIV” (Bioorg Med Chem, 2009).

Legend:
[1] = target: Carbonic anhydrase 6 (Homo sapiens) (UniProt P23280); assay: Activation of human recombinant carbonic anhydrase 6 by stopped flow CO2 hydration method
[2] = target: Carbonic anhydrase 1 (Homo sapiens) (UniProt P00915); assay: Activation of human recombinant carbonic anhydrase 1 by stopped flow CO2 hydration method
Carbonic anhydrase 1 (Homo sapiens), sequence (P00915 2-261 limits assumed): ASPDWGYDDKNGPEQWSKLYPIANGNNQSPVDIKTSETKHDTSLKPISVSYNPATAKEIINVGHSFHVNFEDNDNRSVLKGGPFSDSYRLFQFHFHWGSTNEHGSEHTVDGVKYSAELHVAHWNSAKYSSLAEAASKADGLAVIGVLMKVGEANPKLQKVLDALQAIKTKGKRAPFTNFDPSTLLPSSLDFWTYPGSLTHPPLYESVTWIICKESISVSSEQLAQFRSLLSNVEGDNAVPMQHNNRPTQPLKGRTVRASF

[3] = target: Carbonic anhydrase 2 (Homo sapiens) (UniProt P00918); assay: Activation of human recombinant carbonic anhydrase 2 by stopped flow CO2 hydration method
[4] = target: Carbonic anhydrase 3 (Homo sapiens) (UniProt P07451); assay: Activation of human recombinant carbonic anhydrase 3 by stopped flow CO2 hydration method
Carbonic anhydrase 3 (Homo sapiens), sequence (P07451 whole entry): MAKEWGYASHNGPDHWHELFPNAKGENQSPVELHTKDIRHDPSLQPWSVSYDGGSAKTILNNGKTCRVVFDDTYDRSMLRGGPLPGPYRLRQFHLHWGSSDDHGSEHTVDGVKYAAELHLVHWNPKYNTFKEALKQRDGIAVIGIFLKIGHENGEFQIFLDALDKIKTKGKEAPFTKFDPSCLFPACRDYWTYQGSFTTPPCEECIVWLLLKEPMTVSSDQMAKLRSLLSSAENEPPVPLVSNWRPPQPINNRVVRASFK

[5] = target: Carbonic anhydrase 4 (Homo sapiens) (UniProt P22748); assay: Activation of human recombinant carbonic anhydrase 4 by stopped flow CO2 hydration method
Carbonic anhydrase 4 (Homo sapiens), sequence (P22748 whole entry): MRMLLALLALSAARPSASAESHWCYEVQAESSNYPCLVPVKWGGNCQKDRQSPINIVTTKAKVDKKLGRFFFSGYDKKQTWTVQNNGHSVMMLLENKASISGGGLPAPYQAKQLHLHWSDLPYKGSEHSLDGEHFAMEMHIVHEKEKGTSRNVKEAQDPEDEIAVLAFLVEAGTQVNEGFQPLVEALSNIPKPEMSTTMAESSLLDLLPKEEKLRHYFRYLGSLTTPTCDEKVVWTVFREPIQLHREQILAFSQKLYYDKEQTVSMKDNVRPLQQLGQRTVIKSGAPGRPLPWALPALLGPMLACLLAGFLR

[6] = target: Carbonic anhydrase 5A, mitochondrial (Homo sapiens) (UniProt P35218); assay: Activation of human recombinant carbonic anhydrase 5A by stopped flow CO2 hydration method
Carbonic anhydrase 5A, mitochondrial (Homo sapiens), sequence (P35218 whole entry): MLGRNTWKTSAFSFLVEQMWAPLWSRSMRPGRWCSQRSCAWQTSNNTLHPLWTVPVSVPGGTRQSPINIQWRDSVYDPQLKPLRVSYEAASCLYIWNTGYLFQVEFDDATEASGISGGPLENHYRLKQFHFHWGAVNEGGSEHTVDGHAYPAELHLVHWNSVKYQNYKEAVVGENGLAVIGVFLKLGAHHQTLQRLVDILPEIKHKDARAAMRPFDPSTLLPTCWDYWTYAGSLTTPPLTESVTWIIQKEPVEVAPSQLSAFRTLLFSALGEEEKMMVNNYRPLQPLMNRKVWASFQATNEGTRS

[7] = target: Carbonic anhydrase 5B, mitochondrial (Homo sapiens) (UniProt Q9Y2D0); assay: Activation of human recombinant carbonic anhydrase 5B by stopped flow CO2 hydration method
Carbonic anhydrase 5B, mitochondrial (Homo sapiens), sequence (Q9Y2D0 whole entry): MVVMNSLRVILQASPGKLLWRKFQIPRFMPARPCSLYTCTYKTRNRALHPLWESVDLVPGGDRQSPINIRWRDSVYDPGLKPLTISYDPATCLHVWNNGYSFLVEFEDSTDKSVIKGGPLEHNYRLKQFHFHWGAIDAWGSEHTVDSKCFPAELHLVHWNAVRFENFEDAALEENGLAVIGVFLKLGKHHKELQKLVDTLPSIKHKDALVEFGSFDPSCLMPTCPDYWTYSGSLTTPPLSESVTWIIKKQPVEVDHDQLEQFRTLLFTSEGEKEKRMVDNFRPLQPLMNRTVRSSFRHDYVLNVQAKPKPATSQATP

[8] = target: Carbonic anhydrase 7 (Homo sapiens) (UniProt P43166); assay: Activation of human recombinant carbonic anhydrase 7 by stopped flow CO2 hydration method
Carbonic anhydrase 7 (Homo sapiens), sequence (P43166 whole entry, the tested form may be a part): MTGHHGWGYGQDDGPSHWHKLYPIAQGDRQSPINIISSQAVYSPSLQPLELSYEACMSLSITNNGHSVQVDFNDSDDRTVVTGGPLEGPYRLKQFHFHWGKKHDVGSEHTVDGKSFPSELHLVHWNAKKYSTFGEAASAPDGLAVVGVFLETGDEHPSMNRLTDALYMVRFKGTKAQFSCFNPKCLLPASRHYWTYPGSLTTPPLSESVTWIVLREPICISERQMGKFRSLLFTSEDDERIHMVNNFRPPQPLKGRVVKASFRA

[9] = target: Carbonic anhydrase 9 (Homo sapiens) (UniProt Q16790); assay: Activation of human recombinant carbonic anhydrase 9 catalytic domain by stopped flow CO2 hydration method
[10] = target: Carbonic anhydrase 12 (Homo sapiens) (UniProt O43570); assay: Activation of human recombinant carbonic anhydrase 12 catalytic domain by stopped flow CO2 hydration method
Carbonic anhydrase 12 (Homo sapiens), sequence (O43570 whole entry, the tested form may be a part): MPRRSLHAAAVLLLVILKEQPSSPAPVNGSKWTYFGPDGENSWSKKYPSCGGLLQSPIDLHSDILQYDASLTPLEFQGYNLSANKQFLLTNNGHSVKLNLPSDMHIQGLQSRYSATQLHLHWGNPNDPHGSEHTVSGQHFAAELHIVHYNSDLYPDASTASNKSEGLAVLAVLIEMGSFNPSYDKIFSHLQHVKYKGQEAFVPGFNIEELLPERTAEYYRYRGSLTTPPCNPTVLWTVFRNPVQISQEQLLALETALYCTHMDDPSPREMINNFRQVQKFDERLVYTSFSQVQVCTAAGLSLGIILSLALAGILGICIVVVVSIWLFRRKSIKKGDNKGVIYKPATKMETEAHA

[11] = target: Carbonic anhydrase 13 (Mus musculus) (UniProt Q9D6N1); assay: Activation of mouse recombinant carbonic anhydrase 13 by stopped flow CO2 hydration method
Carbonic anhydrase 13 (Mus musculus), sequence (Q9D6N1 whole entry, looked up): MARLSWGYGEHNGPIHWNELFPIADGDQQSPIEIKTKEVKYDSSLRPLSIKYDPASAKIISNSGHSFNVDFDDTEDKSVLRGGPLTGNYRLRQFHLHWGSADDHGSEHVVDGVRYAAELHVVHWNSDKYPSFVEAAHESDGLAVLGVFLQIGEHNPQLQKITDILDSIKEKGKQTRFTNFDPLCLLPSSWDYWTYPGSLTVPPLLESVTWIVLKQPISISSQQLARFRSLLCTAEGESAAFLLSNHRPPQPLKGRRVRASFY

[12] = target: Carbonic anhydrase 14 (Homo sapiens) (UniProt Q9ULX7); assay: Activation of human recombinant carbonic anhydrase 14 by stopped flow CO2 hydration method
Carbonic anhydrase 14 (Homo sapiens), sequence (Q9ULX7 whole entry): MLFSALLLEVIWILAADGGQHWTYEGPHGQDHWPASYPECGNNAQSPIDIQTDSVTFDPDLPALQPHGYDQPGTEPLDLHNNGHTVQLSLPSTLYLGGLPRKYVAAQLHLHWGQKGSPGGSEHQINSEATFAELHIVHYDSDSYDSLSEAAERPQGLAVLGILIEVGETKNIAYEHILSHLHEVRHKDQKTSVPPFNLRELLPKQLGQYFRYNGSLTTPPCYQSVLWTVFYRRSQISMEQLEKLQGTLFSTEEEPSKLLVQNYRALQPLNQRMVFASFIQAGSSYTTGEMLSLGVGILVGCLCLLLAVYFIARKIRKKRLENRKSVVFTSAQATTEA

[13] = Half life in po dosed human plasma; format: ADME, organism-based
Rattus norvegicus [14] = assay: Activation of carbonic anhydrase in Sprague-Dawley rat red blood cells at 1 mg/kg, po after 1 hr by colorimetry relative to control; format: functional
Rattus norvegicus [15] = assay: Activation of carbonic anhydrase in Sprague-Dawley rat red blood cells at 1 mg/kg, po after 3 hrs by colorimetry relative to control; format: functional
Rattus norvegicus [16] = assay: Activation of carbonic anhydrase in Sprague-Dawley rat red blood cells at 1 mg/kg, po after 5 hrs by colorimetry relative to control; format: functional

Carbonic anhydrase 6 (Homo sapiens), sequence (P23280 whole entry): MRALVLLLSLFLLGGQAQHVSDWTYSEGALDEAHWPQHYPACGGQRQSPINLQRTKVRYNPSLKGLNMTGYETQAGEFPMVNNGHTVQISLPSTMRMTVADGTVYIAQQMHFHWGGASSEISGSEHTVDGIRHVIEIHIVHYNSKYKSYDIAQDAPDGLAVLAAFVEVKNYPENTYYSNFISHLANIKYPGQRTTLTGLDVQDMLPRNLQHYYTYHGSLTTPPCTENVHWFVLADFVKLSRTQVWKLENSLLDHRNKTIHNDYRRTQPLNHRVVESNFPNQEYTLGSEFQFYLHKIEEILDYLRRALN

Molecule `NCCN1CCNCC1` has a KA [1] of 9.54 µM.
With `CCCc1nn(C)c2c(=O)[nH]c(-c3cc(S(=O)(=O)N4CCN(C)CC4)ccc3OCC)nc12.O=C(O)CC(O)(CC(=O)O)C(=O)O` [SILDENAFIL CITRATE] the KA [2] was 1.08 µM, the KA [3] was 31.3 µM and the KA [4] was 13.4 µM. It also gave a KA [5] of 15.2 µM, a KA [6] of 16.8 µM and a KA [7] of 6.54 µM. For the same molecule, the KA [1] was 2.37 µM, the KA [8] was 72.9 µM and the KA [9] was 34 µM. The KA [10] was 73 µM, the KA [11] was 27.5 µM and the KA [12] was 32.4 µM. It also gave a half-life [13] of 4 h, an Activity (Rattus norvegicus [14]) of 84.47% and an Activity (Rattus norvegicus [15]) of 59.6%. It also gave an Activity (Rattus norvegicus [16]) of 79.19%.
With `NCCc1c[nH]cn1` the KA [1] was 6.5 µM.
